Molecules are shown by their SMILES.

In one assay the test system is NCI-H838. Kind of assay: relative viability (nuclei count vs DMSO), 5 days (fraction); higher = more cells survive. The conditions noted are these: first compound 0.8 µM. In outline: (§1)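 Relative viability divides the nuclei count in treated wells by that in vehicle wells. Lung cancer cell lines were seeded in 1536-well plates, dosed by pin tool the next day, and fixed and stained after 5 days in one step with final 0.05% Triton X-100, 1% formaldehyde and 1 ug/ml Hoechst. Dosing was a single drug or a fixed anchor-drug dose plus five library-drug doses (not always all listed) in √10 steps, and values are medians of duplicate plates imaged at 4×.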
In the case of `Nc1cccc2c1CN(C1CCC(=O)NC1=O)C2=O` (stereo not given) [Lenalidomide] + CCNC(=O)c1noc(-c2cc(C(C)C)c(O)cc2O)c1-c1ccc(CN2CCOCC2)cc1 [Luminespib] (partner 0.01 µM), the relative viability is 0.308.

`Nc1cccc2c1CN(C1CCC(=O)NC1=O)C2=O` (stereo not given) [Lenalidomide] + Nc1ncn([C@H]2C[C@H](O)[C@@H](CO)O2)c(=O)n1 [Decitabine] (partner 2 µM) came in with a relative viability of 0.404.

Regarding `Nc1cccc2c1CN(C1CCC(=O)NC1=O)C2=O` (stereo not given) [Lenalidomide] + Cc1nc(Nc2ncc(C(=O)Nc3c(C)cccc3Cl)s2)cc(N2CCN(CCO)CC2)n1 [Dasatinib] (partner 0.075 µM), the relative viability stood at 0.301.

`Nc1cccc2c1CN(C1CCC(=O)NC1=O)C2=O` (stereo not given) [Lenalidomide] + N=C(N)NC(=N)NCCc1ccccc1 [Phenformin] (partner 250 µM) had a relative viability of 0.541.

As to `Nc1cccc2c1CN(C1CCC(=O)NC1=O)C2=O` (stereo not given) [Lenalidomide] + CC(=O)c1c(C)c2cnc(Nc3ccc(N4CCNCC4)cn3)nc2n(C2CCCC2)c1=O [Palbociclib] (partner 0.5 µM), the relative viability was 0.19.

Still in this assay, the particulars now being: first compound 2.53 µM.
The molecule `Nc1cccc2c1CN(C1CCC(=O)NC1=O)C2=O` (stereo not given) [Lenalidomide] + CCNC(=O)c1noc(-c2cc(C(C)C)c(O)cc2O)c1-c1ccc(CN2CCOCC2)cc1 [Luminespib] (partner 0.01 µM) came in with a relative viability of 0.269.

As for `Nc1cccc2c1CN(C1CCC(=O)NC1=O)C2=O` (stereo not given) [Lenalidomide] + Nc1ncn([C@H]2C[C@H](O)[C@@H](CO)O2)c(=O)n1 [Decitabine] (partner 2 µM), the relative viability worked out at 0.527.

In turn, `Nc1cccc2c1CN(C1CCC(=O)NC1=O)C2=O` (stereo not given) [Lenalidomide] + Cc1nc(Nc2ncc(C(=O)Nc3c(C)cccc3Cl)s2)cc(N2CCN(CCO)CC2)n1 [Dasatinib] (partner 0.075 µM) displayed a relative viability of 0.302.

In turn, `Nc1cccc2c1CN(C1CCC(=O)NC1=O)C2=O` (stereo not given) [Lenalidomide] + N=C(N)NC(=N)NCCc1ccccc1 [Phenformin] (partner 250 µM) came in with a relative viability of 0.689.

Consider `Nc1cccc2c1CN(C1CCC(=O)NC1=O)C2=O` (stereo not given) [Lenalidomide] + CC(=O)c1c(C)c2cnc(Nc3ccc(N4CCNCC4)cn3)nc2n(C2CCCC2)c1=O [Palbociclib] (partner 0.5 µM), for which the relative viability is 0.256.

The assay is the same for the next values; noted with them: first compound 8 µM.
Molecule `Nc1cccc2c1CN(C1CCC(=O)NC1=O)C2=O` (stereo not given) [Lenalidomide] + CCNC(=O)c1noc(-c2cc(C(C)C)c(O)cc2O)c1-c1ccc(CN2CCOCC2)cc1 [Luminespib] (partner 0.01 µM) displayed a relative viability of 0.4.

With `Nc1cccc2c1CN(C1CCC(=O)NC1=O)C2=O` (stereo not given) [Lenalidomide] + Nc1ncn([C@H]2C[C@H](O)[C@@H](CO)O2)c(=O)n1 [Decitabine] (partner 2 µM), the relative viability is 0.491.

As to `Nc1cccc2c1CN(C1CCC(=O)NC1=O)C2=O` (stereo not given) [Lenalidomide] + Cc1nc(Nc2ncc(C(=O)Nc3c(C)cccc3Cl)s2)cc(N2CCN(CCO)CC2)n1 [Dasatinib] (partner 0.075 µM), the relative viability worked out at 0.252.

In the case of `Nc1cccc2c1CN(C1CCC(=O)NC1=O)C2=O` (stereo not given) [Lenalidomide] + N=C(N)NC(=N)NCCc1ccccc1 [Phenformin] (partner 250 µM), the relative viability stood at 0.468.

In turn, `Nc1cccc2c1CN(C1CCC(=O)NC1=O)C2=O` (stereo not given) [Lenalidomide] + CC(=O)c1c(C)c2cnc(Nc3ccc(N4CCNCC4)cn3)nc2n(C2CCCC2)c1=O [Palbociclib] (partner 0.5 µM) came in with a relative viability of 0.18.

The test system of a further assay is NCI-H322M. Described as above. The conditions noted are these: first compound 0.253 µM. In outline: as §1
As for `Nc1cccc2c1CN(C1CCC(=O)NC1=O)C2=O` (stereo not given) [Lenalidomide] + CCNC(=O)c1noc(-c2cc(C(C)C)c(O)cc2O)c1-c1ccc(CN2CCOCC2)cc1 [Luminespib] (partner 0.01 µM), the relative viability was found to be 0.81.

`Nc1cccc2c1CN(C1CCC(=O)NC1=O)C2=O` (stereo not given) [Lenalidomide] + Nc1ncn([C@H]2C[C@H](O)[C@@H](CO)O2)c(=O)n1 [Decitabine] (partner 2 µM) gave a relative viability of 0.702.

As for `Nc1cccc2c1CN(C1CCC(=O)NC1=O)C2=O` (stereo not given) [Lenalidomide] + Cc1nc(Nc2ncc(C(=O)Nc3c(C)cccc3Cl)s2)cc(N2CCN(CCO)CC2)n1 [Dasatinib] (partner 0.075 µM), the relative viability was determined as 0.262.

`Nc1cccc2c1CN(C1CCC(=O)NC1=O)C2=O` (stereo not given) [Lenalidomide] + N=C(N)NC(=N)NCCc1ccccc1 [Phenformin] (partner 250 µM): the relative viability was determined as 0.801.

The molecule `Nc1cccc2c1CN(C1CCC(=O)NC1=O)C2=O` (stereo not given) [Lenalidomide] + CC(=O)c1c(C)c2cnc(Nc3ccc(N4CCNCC4)cn3)nc2n(C2CCCC2)c1=O [Palbociclib] (partner 0.5 µM) displayed a relative viability of 0.53.

Still in this assay, the particulars now being: first compound 0.8 µM.
In turn, `Nc1cccc2c1CN(C1CCC(=O)NC1=O)C2=O` (stereo not given) [Lenalidomide] + CCNC(=O)c1noc(-c2cc(C(C)C)c(O)cc2O)c1-c1ccc(CN2CCOCC2)cc1 [Luminespib] (partner 0.01 µM) yielded a relative viability of 0.982.

As for `Nc1cccc2c1CN(C1CCC(=O)NC1=O)C2=O` (stereo not given) [Lenalidomide] + Nc1ncn([C@H]2C[C@H](O)[C@@H](CO)O2)c(=O)n1 [Decitabine] (partner 2 µM), the relative viability is 0.78.

In the case of `Nc1cccc2c1CN(C1CCC(=O)NC1=O)C2=O` (stereo not given) [Lenalidomide] + Cc1nc(Nc2ncc(C(=O)Nc3c(C)cccc3Cl)s2)cc(N2CCN(CCO)CC2)n1 [Dasatinib] (partner 0.075 µM), the relative viability amounted to 0.279.

The molecule `Nc1cccc2c1CN(C1CCC(=O)NC1=O)C2=O` (stereo not given) [Lenalidomide] + N=C(N)NC(=N)NCCc1ccccc1 [Phenformin] (partner 250 µM) yielded a relative viability of 0.894.

On to `Nc1cccc2c1CN(C1CCC(=O)NC1=O)C2=O` (stereo not given) [Lenalidomide] + CC(=O)c1c(C)c2cnc(Nc3ccc(N4CCNCC4)cn3)nc2n(C2CCCC2)c1=O [Palbociclib] (partner 0.5 µM), for which the relative viability amounted to 0.521.

Staying with this assay, now noted: first compound 2.53 µM.
Molecule `Nc1cccc2c1CN(C1CCC(=O)NC1=O)C2=O` (stereo not given) [Lenalidomide] + CCNC(=O)c1noc(-c2cc(C(C)C)c(O)cc2O)c1-c1ccc(CN2CCOCC2)cc1 [Luminespib] (partner 0.01 µM) had a relative viability of 1.05.

`Nc1cccc2c1CN(C1CCC(=O)NC1=O)C2=O` (stereo not given) [Lenalidomide] + Nc1ncn([C@H]2C[C@H](O)[C@@H](CO)O2)c(=O)n1 [Decitabine] (partner 2 µM) showed a relative viability of 0.725.

Molecule `Nc1cccc2c1CN(C1CCC(=O)NC1=O)C2=O` (stereo not given) [Lenalidomide] + Cc1nc(Nc2ncc(C(=O)Nc3c(C)cccc3Cl)s2)cc(N2CCN(CCO)CC2)n1 [Dasatinib] (partner 0.075 µM) showed a relative viability of 0.254.

Molecule `Nc1cccc2c1CN(C1CCC(=O)NC1=O)C2=O` (stereo not given) [Lenalidomide] + N=C(N)NC(=N)NCCc1ccccc1 [Phenformin] (partner 250 µM) came in with a relative viability of 0.863.

Turning to `Nc1cccc2c1CN(C1CCC(=O)NC1=O)C2=O` (stereo not given) [Lenalidomide] + CC(=O)c1c(C)c2cnc(Nc3ccc(N4CCNCC4)cn3)nc2n(C2CCCC2)c1=O [Palbociclib] (partner 0.5 µM), the relative viability amounted to 0.473.

These data come from the supplement of paper PMC10307832.
